{"source": "patent US6573252B1", "about": "“Medicine nitrate salts” (priority 1998, dated 2003)", "key": {"myeloperoxydase (MPO)": {"test_system": "myeloperoxydase (MPO)", "test": "Myeloperoxydase activity in intestinal tissue, acute colitis model (2,4,6-trinitrobenzensulphonic acid)", "assay_type": "in vivo", "conditions": "for Myeloperoxydase activity (unit/mg tissue): rectal route, amount corresponding to 100 mg/kg of 5-ASA, 6 administrations, intestinal tissue (wet)", "experimental": "Myeloperoxydase Activity of the 5-Aminosalicylic Acid (4-nitroxy)butyl Ester Compared with that of the Corresponding Hydrochloride and Nitrate Salts, in an Acute Colitis Model\n4 groups of 6 animals each have been formed. The groups were treated, respectively, with the carrier (carboxymethylcellulose aqueous solution 1%), 100 mg/Kg of 5-ASA, a 5-ASA-NO2.HCl amount corresponding to 100 mg/kg of 5-ASA, an amount of 5-ASA-NO2.HNO3 correspsonding to 100 mg/kg of 5-ASA.\nThe animals were treated by rectal route with the above compounds at zero time. After one hour the animals were treated with 0.5 ml of a 60 mg/ml solution of 2,4,6,trinitro-benzensulphonic acid in ethyl alcohol 50%. After two hours the animals were treated again by rectal route with the same compounds and at 12 hour intervals up to a total of 6 administrations.\nThe tissular levels of the myeloperoxydase (MPO) enzym have been measured which is an inflammatory process marker in various tissues, among which the bony-articular one (C. Rathakrishnan et Al., “Release of oxygen radicals by articular chondrocytes: A study of luminol-dependent chemiluminescence and hydrogen peroxide secretion” J. Bone Miner. Res. 7/10 1139-1148 1992).\nThe myeloperoxydase activity was measured by using a modified version of the experimental model described by Bradley et al. J. Invest. Dermatol. 78, 206-209, 1982. Samples of intestinal tissue were drawn from each animal, which were suspended in 0.1% of hexadecyltrimethylammonium bromide (50 mg/ml) at a pH 6 and homogenized for 15 seconds (Polytron® PT-7 generator). The samples were frozen and then defrosted three times subsequently before being centrifuged (9,000 g) for 2 minutes in an Eppendorf® Benchtop centrifuge. The myeloperoxydase activity was measured by adding 7 μl of the surnatant to 200 μl of o-dianisidine (Sigma) reactant and measuring the optical density variation at 450 nm in a two minute time in a Microtitre Multiscan®. The reactant contained 0.0005% of hydrogen peroxide as substratum for the myeloperoxydase enzym. One unity of the myeloperoxydase activity was defined as the one capable to convert an hydrogen proxide micromole to water in one minute at 22° C. The results are reported in Table II and are expressed as unit number of the myeloperoxydase activity/tissue mg (wet)."}, "[1]": {"test": "Gastric toxicity (gastric lesion incidence) after oral administration in fasted rats", "assay_type": "in vivo", "conditions": "for Gastric damage (% incidence): rat, in vivo, po, 100 mg/kg", "experimental": "Gastric Toxicity of Piroxicam Nitrate Salt (Ex. 1) Compared with Piroxicam\nTo 3 groups of 10 rats each, kept on empty stomach since 24 hours, orally are administered:\n5 ml/Kg of carboxymethylcellulose aqueous suspension 2%.\nan amount of nitrate Piroxicam corresponding to 100 mg/kg of Piroxicam in 5 ml/kg of carboxymethylcellulose aqueous suspension 2%.\nan amount of hydrocloride Piroxicam corresponding to 100 mg/kg of Piroxicam in 5 ml/kg of carboxymethylcellulose aqueous suspension 2%.\nSix hours later the animals are sacrificed and the gastric lesion incidence is evaluated."}, "[2]": {"test": "Gastric damage induced by Aspirin, Alendronate compared with Alendronate nitrate salt", "conditions": "rats, after Aspirin 125 mg/Kg, Alendronate dose 80 mg/Kg p.o.", "experimental": "Prevention of the Gastric Damage Induced by Aspirin by Administering Alendronate in Comparison with Alendronate Nitrate Salt\nThree groups of 5 rats each were treated by oral route with gastric probe as indicated hereinafter:\nI group: treated with Alendronate (Alen.) at the dose of 80 mg/Kg.\nII group: 1 h before the Alendronate 80 mg/Kg dose, ASpirin (Asp.) was supplied per os at the dose of 125 mg/Kg.\nIII group: 1 h before the Alendronate nitrate, (Alen.HNO3) corresponding to the Alendronate 80 mg/Kg dose, Aspirin was supplied per os at the dose of 125 mg/Kg.\nThe evaluation of the gastric damage was carried out sacrificing the animals three hours after the treatment with Alendronate or Alendronate nitrate."}, "[3]": {"test": "Acute toxicity, single oral dose in rats", "assay_type": "in vivo", "conditions": "single dose 100 mg/kg orally in carboxymethylcellulose aqueous suspension 2% w/v, observation for 14 days", "experimental": "To a group of 10 rats weighing […] a single dose equal to 100 mg/kg of Piroxicam nitrate salt (Example 1), has been administered by cannula orally in a carboxymethylcellulose aqueous suspension 2% w/v.\nThe animals are kept under obsevation for 14 days."}}, "note": "Where a name gives a salt, the structure may show the parent alone.", "data": [{"molecule": "Nc1ccc(O)c(C(=O)O)c1", "note": "[Example 5-ASA, 5-aminosalicylic acid, reference compound]", "values": [{"measurement": "Myeloperoxydase activity (unit/mg tissue)", "setting": "myeloperoxydase (MPO)", "result": "72 ± 15", "unit": "unit/mg tissue"}]}, {"molecule": "CN1C(C(=O)Nc2ccccn2)=C(O)c2ccccc2S1(=O)=O", "note": "[Piroxicam.HCl, Piroxicam hydrochloride, reference compound]", "values": [{"measurement": "Gastric damage (% incidence)", "setting": "[1]; 6 h", "result": 100, "unit": "%"}]}, {"molecule": "Alendronate Nitrate Salt [Alen.HNO3]", "values": [{"measurement": "reduction of the level of the gastric damage in comparison with Alendronate", "setting": "[2]", "result": "4 to 5", "unit": "times"}]}, {"molecule": "Nc1ccc(O)c(C(=O)OCCCCO[N+](=O)[O-])c1.O=[N+]([O-])O", "note": "[5-ASA-NO2.HNO3, Nitrate Salt of the 5-amino-2-hydroxybenzoic Acid (4-nitroxy)butyl Ester]", "values": [{"measurement": "myeloperoxydase activity (comparison in words)", "setting": "myeloperoxydase (MPO); acute colitis model, compared with the other groups", "result": "lower than that of the other groups"}, {"measurement": "pharmacological activity compared with the unsalified compound", "setting": "myeloperoxydase (MPO); pharmacological model indicated in the examples", "result": "more active than the unsalified compound"}, {"measurement": "Myeloperoxydase activity (unit/mg tissue)", "setting": "myeloperoxydase (MPO)", "result": "35 ± 13", "unit": "unit/mg tissue"}]}, {"molecule": "Cl.Nc1ccc(O)c(C(=O)OCCCCO[N+](=O)[O-])c1", "note": "[5-ASA-NO2.HCl, Hydrochloride Salt of the 5-Aminosalicylic Acid (4-nitroxy)-butyl Ester, reference compound]", "values": [{"measurement": "Myeloperoxydase activity (unit/mg tissue)", "setting": "myeloperoxydase (MPO)", "result": "111 ± 20", "unit": "unit/mg tissue"}]}, {"molecule": "Piroxicam Nitrate Salt [Piroxicam.HNO3]", "values": [{"measurement": "toxic symptom presence", "setting": "[3]", "result": "In no one of the animals of the group the toxic symptom presence was noticed"}, {"measurement": "Gastric damage (% incidence)", "setting": "[1]", "result": 20, "unit": "%"}, {"measurement": "gastric tolerability (comparison in words)", "setting": "[1]; rats, 100 mg/kg p.o., compared with Piroxicam hydrochloride", "result": "improved gastric tolerability compared with Piroxicam hydrochloride"}]}]}
